The values below come from publication PMC8041284, “Tunable Methacrylamides for Covalent Ligand Directed Release Chemistry” (Journal of the American Chemical Society, 2021).

*1 amine or outer side, *2 acyl side, *3 side chain or, on linkers, in order; H or OH if unused. Where a SMILES comes first, the peptide text is derived from it. Bridges are numbered along the chain shown (N, C = ends). [ ]: non-standard residue; d: D form. The star is where a group is joined. hTyr(3S-OH,4S-OH,3'-OSO3H) = N[C@H](C(=O)O)[C@H](O)[C@@H](O)c1ccc(O)c(OS(=O)(=O)O)c1; Orn(4R-OH,5R-OH) = O=C([C@H](C[C@@H](O)[C@@H](O)N[*:3])N[*:1])[*:2]; Pro(3S-OH,4S-Me) = C[C@H]1CN[C@H](C(=O)O)[C@H]1O; X1 = CCCCCOc1ccc(-c2cc(-c3ccc(C(=O)*)cc3)no2)cc1; Gln(3R-OH) = NC(=O)C[C@@H](O)[C@H](N)C(=O)O; Hyp = O=C(O)[C@@H]1C[C@@H](O)CN1

For one experiment, the target named is BTK (Homo sapiens, UniProt Q06187). Kind of experiment: biochemical. The settings on record: read-out: BTK inhibition (%).
BTK, sequence (Q06187 402-655 limits assumed): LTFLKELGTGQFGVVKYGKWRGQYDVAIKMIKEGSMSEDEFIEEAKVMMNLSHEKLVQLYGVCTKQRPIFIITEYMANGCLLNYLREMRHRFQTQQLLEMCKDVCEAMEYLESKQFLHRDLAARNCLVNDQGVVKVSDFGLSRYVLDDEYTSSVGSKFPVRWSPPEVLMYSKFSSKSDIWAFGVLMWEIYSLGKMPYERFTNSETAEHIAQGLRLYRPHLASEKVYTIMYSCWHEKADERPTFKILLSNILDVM
As a reminder, the inhibition is the drop in the measured response relative to a control, in per cent. Regarding `CC(=O)O[C@@H]1[C@H]2[C@@H](OC(=O)Cc3ccccc3)[C@@H](C)C[C@]2(OC(C)=O)C(=O)/C(C)=C/[C@@H]2[C@H](CC[C@]13CO3)C2(C)C` [PCM-0216313], the inhibition at 10 µM was -27.8%.

The same experiment, now with this note: read-out: BTK inhibition (%), 0.75 uM BTK, […] probe 3l, 15 min preincubation.
As for `CCCCNc1cc(C(=O)O)cc(S(N)(=O)=O)c1Oc1ccccc1` [PCM-0064421], the inhibition at 10 µM was -6.2%. Still for that read-out and setting: in the case of `CC(=O)OCC1=C(C(=O)O)N2C(=O)[C@@H](NC(=O)CSc3ccncc3)[C@H]2SC1` [PCM-0215254] it was 3.1%; in that of `CCCCCOc1ccc(-c2cc(-c3ccc(C(=O)N[C@H]4C[C@@H](O)[C@@H](O)NC(=O)[C@@H]5[C@@H](O)[C@@H](C)CN5C(=O)[C@H]([C@H](O)CC(N)=O)NC(=O)[C@H]([C@H](O)[C@@H](O)c5ccc(O)c(OS(=O)(=O)O)c5)NC(=O)[C@@H]5C[C@@H](O)CN5C(=O)[C@H]([C@@H](C)O)NC4=O)cc3)no2)cc1` [PCM-0215341] (X1-[Orn(4R-OH,5R-OH)]T[Hyp][hTyr(3S-OH,4S-OH,3'-OSO3H)][Gln(3R-OH)][Pro(3S-OH,4S-Me)]; lactam 1-C), 3.4%. Same read-out and setting: the value for `COc1ccccc1OCCNCC(O)COc1cccc2[nH]c3ccccc3c12` (stereo not shown) [PCM-0065111] was -7.8%; that for `O=C(O)CCCC[C@@H]1SC[C@@H]2NC(=O)N[C@@H]21` [PCM-0085973] was 0%. The same measure, in the same setting: the value for `Cc1[nH]nc2ncc(C(=O)N3CCC[C@H]3c3ccc(Cl)cc3)cc12` [PCM-0215837] was 6.2%. Consider `CC(NC(=O)c1ccccc1N=Cc1c(O)ccc2ccccc12)c1ccccc1` (stereo not shown) [PCM-0095400], for which the inhibition at 10 µM worked out at 9%. The same measure, in the same setting: in the case of `Cc1ccc(C(C)C)cc1O` [PCM-0215926] it was -21.4%; in that of `NC(=O)c1cnc(N[C@@H]2CCCC[C@@H]2N)nc1Nc1cccc(-n2nccn2)c1` [PCM-0095619], 70.3%. Still for that read-out and setting: in the case of `O=C1NC(=O)/C(=C/c2ccc(-c3ccc(F)cc3O)o2)S1` [PCM-0064686] it was 82.8%. The same measure, in the same setting: in the case of `CCOc1cc(N)c(Cl)cc1C(=O)NCC1CN(Cc2ccc(F)cc2)CCO1` (stereo not shown) [PCM-0095041] it was -14%; in that of `C[n+]1ccccc1/C=N/O` [PCM-0086551], -18.5%. `C1=C/COCc2cc(ccc2OCCN2CCCC2)Nc2nccc(n2)-c2cccc(c2)COC/1` [PCM-0215268]: the inhibition at 10 µM came to 71.7%.

For the compound `CC(C)n1nccc1-c1ncccc1COc1cccc(O)c1C=O` [PCM-0215847], the inhibition at 10 µM was -13.1%. The same measure, in the same setting: the value for `CC(C)N(CCCNC(=O)Nc1ccc(C(C)(C)C)cc1)C[C@H]1O[C@@H](n2ccc3c(N)ncnc32)[C@H](O)[C@@H]1O` [PCM-0215195] was -18.5%. For `COc1ccc(COc2ccc(CC#N)cc2)cc1` [PCM-0215565], the inhibition at 10 µM was -9.3%. `CC(=O)O[C@H]1CC[C@H]2[C@@H]3CCc4cc(O)ccc4[C@H]3CC[C@]12C` [PCM-0216021]: the inhibition at 10 µM came out at 3.1%. On the same count and under the same terms, the value for `CC(C)=CCc1cc2c(cc1O)oc(=O)c1c3ccc(O)cc3oc21` [PCM-0216176] was 17.2%; that for `COc1cc(OC)c(/C=C/S(=O)(=O)Cc2ccc(OC)c(NCC(=O)O)c2)c(OC)c1` [PCM-0094976] was -2.1%.

On to `C[N+](C)(C)CCCCCC[N+](C)(C)C` [PCM-0065242], for which the inhibition at 10 µM is -14.5%.

Regarding `CC(C)=CCC[C@](C)(O[C@@H]1O[C@H](CO)[C@@H](O)[C@H](O)[C@H]1O)[C@H]1CC[C@]2(C)[C@@H]1[C@H](O)C[C@@H]1[C@@]3(C)CC[C@H](O[C@@H]4O[C@H](CO)[C@@H](O)[C@H](O)[C@H]4O[C@@H]4O[C@H](CO)[C@@H](O)[C@H](O)[C@H]4O)C(C)(C)[C@@H]3CC[C@]12C` [PCM-0215020], the inhibition at 10 µM was 21%. On the same count and under the same terms, in the case of `O=C(O)CSc1cc(NS(=O)(=O)c2ccc(Br)cc2)c2ccccc2c1O` [PCM-0215378] it was 51.7%; in that of `CCOc1ccccc1O[C@H](c1ccccc1)[C@H]1CNCCO1` [PCM-0095634], -7%; in that of `Cc1ccc(Cl)cc1N(CC(=O)Nc1c(F)cccc1F)S(C)(=O)=O` [PCM-0215291], 0.8%. Still for that read-out and setting: in the case of `N/C(=N\N=C\c1ccc(Cl)cc1)N/N=C/c1ccc(Cl)cc1` [PCM-0215125] it was 77.8%; in that of `Nc1ncn([C@@H]2O[C@H](CO)[C@@H](O)[C@H]2O)c(=O)n1` [PCM-0064526], -6.2%; in that of `Cc1cccc(Nc2cc(Cl)nc(SCC(=O)O)n2)c1C` [PCM-0095617], 7.7%. In the case of `COc1ccc(/C=C/C(=O)Nc2ccccc2C(=O)O)cc1OC` [PCM-0065010], the inhibition at 10 µM was 13.8%.

With `CCC(C)SSc1ncc[nH]1` (stereo not shown) [PCM-0215586], the inhibition at 10 µM was 2.3%. Still for that read-out and setting: the value for `COc1cc(OCc2cccc(-c3ccccc3)c2C)cc(OC)c1CN1CCCC[C@H]1C(=O)O` [PCM-0215607] was -35.2%. `O=C(O)C1=C(CSc2nnnn2CS(=O)(=O)O)CS[C@@H]2[C@H](NC(=O)[C@H](O)c3ccccc3)C(=O)N12` [PCM-0214888]: the inhibition at 10 µM amounted to 3.9%. Still for that read-out and setting: the value for `CS(=O)(=O)c1cccc(C[C@H](NC(=O)c2c(Cl)cc3c(c2Cl)CCN(C(=O)c2ccc4ccoc4c2)C3)C(=O)O)c1` [PCM-0214914] was -4.7%; that for `CC1(C)CCC[C@]2(C)[C@H]3CCO[C@]3(C)CC[C@@H]12` [PCM-0215965] was 15.4%. The same measure, in the same setting: in the case of `C[C@@H](O)[C@H]1C(=O)N2C(C(=O)O)=C(S[C@@H]3CN[C@H](C(=O)N(C)C)C3)[C@H](C)[C@H]12` [PCM-0095036] it was -14.8%. Same read-out and setting: in the case of `N#C/C(=C\c1ccc(O)c(O)c1)C(=O)NCc1ccccc1` [PCM-0094962] it was 53.1%; in that of `CCCNCC(O)COc1ccccc1C(=O)CCc1ccccc1` (stereo not shown) [PCM-0064846], 2.3%. Regarding `CCOCCn1c(N2CCCN(C)CC2)nc2ccccc21` [PCM-0086037], the inhibition at 10 µM is 2.3%.

Consider `COC(=O)CNC(=O)C(=O)OC` [PCM-0215303], for which the inhibition at 10 µM was 3.9%. The same measure, in the same setting: in the case of `CC(=O)N[C@@H](CC(C)C)C(=O)N[C@@H](CC(C)C)C(=O)N[C@H](C=O)CCCN=C(N)N` [PCM-0215331] it was 9.3%; in that of `CC(C)C[C@H](NC(=O)[C@H](Cc1ccccc1)NC(=O)c1cnccn1)B(O)O` [PCM-0094909], 8.6%. Still for that read-out and setting: in the case of `CC(C)(O)[C@H]1CC[C@@](C)([C@H]2[C@@H](O)C[C@@]3(C)[C@@H]4C[C@H](O)[C@H]5C(C)(C)[C@@H](O)CC[C@@]56C[C@@]46CC[C@]23C)O1` [PCM-0215043] it was -14.8%; in that of `N=C(N)c1ccc(OCCCCCOc2ccc(C(=N)N)cc2)cc1` [PCM-0064878], -4.7%. The same measure, in the same setting: in the case of `O=c1n(CCCN2CCN(c3cccc(Cl)c3)CC2)nc2ccccn12` [PCM-0064865] it was -0.9%; in that of `CC(=O)Nc1ccc(C(=O)Nc2ccccc2N)cc1` [PCM-0095432], -17.1%; in that of `O=C1C(c2c(O)[nH]c3ccccc23)=Nc2ccccc21` [PCM-0094833], 11%. In the case of `NCCCC[C@H](N[C@@H](CCc1ccccc1)C(=O)O)C(=O)N1CCC[C@H]1C(=O)O` [PCM-0085899], the inhibition at 10 µM amounted to 1.7%. On the same count and under the same terms, the value for `O=C1CCc2ccc(O)cc2N1` [PCM-0215070] was 9.3%.

As to `CNc1nc(Nc2cnn([C@H]3CCN(C4COC4)C[C@@H]3F)c2Cl)ncc1C(F)(F)F` [PCM-0215360], the inhibition at 10 µM is 0%. As to `O=C1CC(c2c[nH]c3ccc(F)cc23)C(=O)N1` (stereo not shown) [PCM-0215900], the inhibition at 10 µM was -5.4%. For `CN(C)CCNC(=O)c1cccn2c(=O)c3cc4ccccc4cc3nc12` [PCM-0215411], the inhibition at 10 µM came out at 5.4%. The same measure, in the same setting: the value for `COC(=O)[C@@H](N)CCCN=C(N)N[N+](=O)[O-]` [PCM-0215172] was 19.6%; that for `CCn1c(=O)c(-c2ccc(-c3cncs3)cc2Cl)cc2cnc(Nc3ccc(N4CCN(C)CC4)cc3)nc21` [PCM-0215453] was 18.6%. As to `CN1CCN(Cc2ccc(NC(=O)Nc3ccc(Oc4cc(NC(=O)C5CC5)ncn4)cc3)cc2C(F)(F)F)CC1` [PCM-0215388], the inhibition at 10 µM came to 79.5%. On the same count and under the same terms, in the case of `NC(=O)c1ncn([C@@H]2O[C@H](CO)[C@@H](O)[C@H]2O)c1N` [PCM-0095118] it was 4.8%. On the same count and under the same terms, the value for `CC(C)C[C@H](NC(=O)[C@H](CCc1ccccc1)NC(=O)CN1CCOCC1)C(=O)N[C@@H](Cc1ccccc1)C(=O)N[C@@H](CC(C)C)C(=O)[C@@]1(C)CO1` [PCM-0095475] was -17.1%; that for `O=C[C@H](O)[C@@H](O)[C@H](O[C@H]1O[C@H](CO)[C@@H](O[C@H]2O[C@H](CO)[C@@H](O[C@H]3O[C@H](CO)[C@@H](O[C@H]4O[C@H](CO)[C@@H](O)[C@H](O)[C@H]4O)[C@H](O)[C@H]3O)[C@H](O)[C@H]2O)[C@H](O)[C@H]1O)[C@H](O)CO` [PCM-0216396] was 3.1%; that for `N#CCNC(=O)c1ccc(-c2ccnc(Nc3ccc(N4CCOCC4)cc3)n2)cc1` [PCM-0095254] was 16.6%. With `O=C1CCc2ccccc2O1` [PCM-0216624], the inhibition at 10 µM is -9.3%. Still for that read-out and setting: in the case of `COc1ccc(-c2cc(=O)c3c(O)c(OC)c(O)c(OC)c3o2)cc1` [PCM-0214999] it was 80.7%. Still for that read-out and setting: the value for `Cn1nccc1Nc1nccc(-c2cc3c(s2)C(C)(C)N(CCN2CCOCC2)C3=O)n1` [PCM-0215875] was 6.9%.

Consider `O=C(O)CSc1nnc(Br)n1-c1ccc(C2CC2)c2ccccc12` [PCM-0214823], for which the inhibition at 10 µM was -21.8%. On to `c1ccc2c(c1)CCCC2C1=NCCN1` (stereo not shown) [PCM-0064782], for which the inhibition at 10 µM is -11%. `CN1C(=O)[C@@H](NC(=O)c2n[nH]c(Cc3ccccc3)n2)COc2ccccc21` [PCM-0215843]: the inhibition at 10 µM was determined as 6.2%. For the compound `OCCc1ccc(O)c(O)c1` [PCM-0214956], the inhibition at 10 µM is -2.3%. Consider `CCCCOc1nc(N)c2c(n1)N(Cc1cccc(CN3CCCC3)c1)CC(=O)N2` [PCM-0215695], for which the inhibition at 10 µM amounted to 17%.

In the case of `O=c1cc(N2CCOCC2)oc2c(-c3cccc4c3sc3ccccc34)cccc12` [PCM-0095522], the inhibition at 10 µM was -13.6%.
